Results published in patent publication US20260091123A1, “COMBINATION OF ANTI-B7-H3 ANTIBODY-DRUG CONJUGATE AND ATR INHIBITOR OR ATM INHIBITOR” (DAIICHI SANKYO COMPANY, LIMITED, priority 2023, published 2026).

Tests used:
[1] = test system: human prostate carcinoma epithelial cell line, 22Rv1; assay: In vivo antitumor activity, combination with ATM inhibitor, 22Rv1 xenograft (Test Example 5); design: species or system mice; conditions: day 29
Experimental: All animal experiments were performed in accordance with the in-house guidelines of the Institutional Animal Care and Use Committee of Daiichi Sankyo Co., Ltd. The human prostate carcinoma epithelial cell line, 22Rv1 was purchased from American Type Culture Collection (ATCC) and cultured in RPMI 1640 Medium (ATCC modification) (Thermo Fisher Scientific) supplemented with 10% heat-inactivated fetal bovine serum (FBS, cytiva) at 37° C. in a humidified 5% CO2 atmosphere. On the day of cancer cell inoculation, 22Rv1 cells were trypsinized, washed with D-PBS, and then resuspended in D-PBS at a concentration of 5×10^7 cells/mL. Castrated male NSG mice (NOD.Cg-Prkdc^scid Il2rg^tm1Wj1/SzJ, 6 weeks of age, The Jackson Laboratory Japan, Inc.) were subcutaneously inoculated with 22Rv1 cells (5×10^6 cells/mouse) into the right flank. […] Vehicle control • Group 2: AZD1390 20 mg/kg • Group 3: […] A (10 mmol/L histidine buffer [pH5.9] containing 9% sucrose and 0.02% polysorbate 20) to prepare a 0.3 mg/mL dosing solution. To prepare a 2.0 mg/mL dosing solution, AZD1390 was dissolved in Soln. […] The volume of each dosing solution to be administered was calculated from the individual body weight measured on the day of dosing. […] Tumor length and tumor width were measured with a digital caliper. Tumor volume and tumor growth inhibition (TGI) were calculated by the following formulas: […] […]

[2] = test system: human prostate carcinoma epithelial cell line, 22Rv1; assay: In vivo antitumor activity, combination with ATR inhibitor, 22Rv1 xenograft (Test Example 4); design: species or system mice; conditions: day 24
Experimental: All animal experiments were performed in accordance with the in-house guidelines of the Institutional Animal Care and Use Committee of Daiichi Sankyo Co., Ltd. […] Vehicle control • Group 2: AZD6738 25 mg/kg • Group 3: […] A (10 mmol/L histidine buffer [pH5.9] containing 9% sucrose and 0.02% polysorbate 20) to prepare a 0.3 mg/mL dosing solution. […] Then, propylene glycol (40% [v/v] of total volume of the dosing solution) was added to the solution. After mixing with a magnetic stirrer well, water for injection (50% [v/v] of total volume of the dosing solution) was added to the solution, and then the solution was further mixed well with a magnetic stirrer. The volume of each dosing solution to be administered was calculated based on the individual body weight measured on the day of dosing. Soln. […] Soln. […] Tumor length and tumor width were measured with a digital caliper. Tumor volume and tumor growth inhibition (TGI) were calculated by the following formulas: […] Dunnett's test was used to compare tumor volumes in monotherapy groups with those in the vehicle control and to compare tumor volumes in monotherapy groups with those in the combination group. […] The following calculation of TGI and statistical analyses were performed using data except for the excluded mouse in Group 4.

Row | SMILES | tumor growth inhibition (TGI) ([1]; 22Rv1 in castrated male NSG mice, AZD1390 20 mg/kg orally, conjugate (1) 3 mg/kg iv days 0 and 14) | tumor growth / antitumor activity compared with the vehicle control ([1]; monotherapies, Dunnett's test) | tumor growth inhibition (TGI) ([2]; 22Rv1 in castrated male NSG mice, AZD6738 25 mg/kg orally twice a day, conjugate (1) 3 mg/kg iv days 0 and 15) | tumor growth compared with the vehicle control ([2]; monotherapies, Dunnett's test)
1 | CC(C)n1c(=O)n(C)c2cnc3cc(F)c(-c4ccc(OCCCN5CCCCC5)nc4)cc3c21 [AZD1390] | 14% | no statistically significant difference in antitumor activity |  | 
2 | C[C@@H]1COCCN1c1cc(C2([S@](C)(=N)=O)CC2)nc(-c2cc[nH]c3nccc2-3)n1 [AZD6738] |  |  | 29% | significantly inhibited tumor growth
